US8829006B2, “Compounds” (Boehringer Ingelheim International GmbH, priority 2007, dated 2014)

Target: T1, human CGRP receptor (Homo sapiens, UniProt O60894+Q16602)
T1 construct: SK-N-MC membranes (˜20 μg protein) are incubated for 180 minutes at ambient temperature; endogenous in cells; host or cells: SK-N-MC cells (membranes)
Assay: Binding studies with SK-N-MC cells (expressing the human CGRP receptor)
Settings: SK-N-MC membranes, 50 pM 125I-iodotyrosyl-CGRP, 180 minutes at ambient temperature
Procedure: A. Binding Studies with SK-N-MC Cells (Expressing the Human CGRP Receptor)
SK-N-MC membranes (˜20 μg protein) are incubated for 180 minutes at ambient temperature with 50 pM ^125I-iodotyrosyl-Calcitonin-Gene-Related Peptide and increasing concentrations of the test substances in a total volume of 250 μl (assay buffer: 10 mM tris, 50 mM NaCl, 5 mM MgCl2, 1 mM EDTA, pH=7.4). The incubation is ended by rapid filtration through GF/B-glass fibre filters treated with polyethyleneimine (0.1%) using a cell harvester. The protein-bound radioactivity is measured using a gamma counter. Non-specific binding is defined as the bound radioactivity after the presence of 1 μM BIBN4096BS during incubation.
The concentration binding curves are analysed using computer-aided non-linear curve fitting.

T1 sequence (Q16602 23-461): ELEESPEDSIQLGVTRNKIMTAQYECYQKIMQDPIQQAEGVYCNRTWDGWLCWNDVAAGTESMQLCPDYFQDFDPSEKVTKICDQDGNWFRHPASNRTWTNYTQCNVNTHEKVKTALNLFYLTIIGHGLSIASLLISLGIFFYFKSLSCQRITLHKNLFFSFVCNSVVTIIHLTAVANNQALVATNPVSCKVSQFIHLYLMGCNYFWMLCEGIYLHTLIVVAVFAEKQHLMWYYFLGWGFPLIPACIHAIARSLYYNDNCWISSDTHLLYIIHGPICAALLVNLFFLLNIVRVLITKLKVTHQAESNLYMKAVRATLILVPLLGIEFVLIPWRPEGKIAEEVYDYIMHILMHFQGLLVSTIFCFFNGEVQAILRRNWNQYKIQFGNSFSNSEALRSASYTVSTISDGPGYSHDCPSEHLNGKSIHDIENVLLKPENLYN
T1 sequence (O60894 27-148): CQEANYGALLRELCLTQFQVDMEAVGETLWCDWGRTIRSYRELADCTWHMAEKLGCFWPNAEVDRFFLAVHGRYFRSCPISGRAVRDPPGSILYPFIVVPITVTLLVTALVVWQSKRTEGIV

Compound	Ki
O=C(c1cc(N2CCC(n3c(=O)[nH]c4ncccc43)CC2)ncn1)N1CCC2CCCCC21 (stereo not drawn) [(11)]	34 nM
COc1ccc2c(c1)CCN(C1CCN(c3cc(C(=O)N4Cc5cn[nH]c5C(C)(C)C4)ncn3)CC1)C(=O)N2 [(8)]	4 nM
CC1(C)CN(C(=O)c2cc(N3CCC(n4c(=O)[nH]c5ncccc54)CC3)ncn2)c2ccc(F)cc21 [(37)]	2 nM
CC1(C)CCN(C(=O)c2cc(N3CCC(n4c(=O)[nH]c5ncccc54)CC3)ncn2)C1 [(50)]	690 nM
O=C(c1cc(N2CCC(n3nc(-c4ccccc4)[nH]c3=O)CC2)ncn1)N1CCc2ccccc21 [(15)]	21 nM

Results, then the molecule that gave them:

Ki	Compound
5 nM	O=C(c1cc(N2CCC(n3c(=O)[nH]c4ncccc43)CC2)ncn1)N1CCc2cc(F)ccc21 [(36)]
3 nM	CC1(C)CN(C(=O)c2cc(N3CCC(n4c(=O)[nH]c5ncccc54)CC3)ncn2)Cc2ccccc21 [(55)]
117 nM	O=C(c1cc(N2CCC(n3c(=O)[nH]c4ncccc43)CC2)ncn1)N1Cc2ccccc2C1 [(17)]
21 nM	O=C(c1cc(N2CCC(n3c(=O)[nH]c4ncccc43)CC2)ncn1)N1CC(CCCN2CCCC2)c2ccccc21 (stereo not drawn) [(41)]
